From patent EP0678516B1, “Preparation of 2-bromo-5-(2-bromo-2-nitrovinyl)-furan and its use as microcide” (CENTRO DE BIOACTIVOS QUIMICOS DE LA UNIVERSIDAD CENTRAL DE …, priority 1994, dated 1995)

Test system: Pseudomonas aeruginosa
Experiment: Experimental infection, implanted sponge method
Type: in vivo, mice
Experimental: The effectiveness of three oil formulations were also tested, at 0.15, 0.2, 0.25% and a control with placebo in mice experimentally infected using implanted sponge method, inoculated with Pseudomonas aeruginosa and Staphylococcus aureus. Recuperation of the animal was between 3 and 4 days of treatment (Tables No. 3 and 3.1).
Read: n = Accumulated from recuperated animals Tr = Recuperation time in days (weighted average) ((n1±1) + ((n2-n1) ±2)+((n3-n2)±3((n4-n3)±4)/n [formula] I,II, III: treated with 2-bromo-5-(2-bromo-2-nitro-vinyl)-furan.

SMILES: O=[N+]([O-])C(Br)=Cc1ccc(Br)o1 [Product G-1, 2-bromo-5-(2-bromo-2-nitro-vinyl)-furan]
- Accumulated clinical recuperation (Formula 0.15%, day 3, 10 mice): 80.0a %
- Accumulated clinical recuperation, n (recuperated animals) (Formula 0.15%, day 3, 10 mice): 8
- Accumulated clinical recuperation (Formula 0.15%, day 5, 10 mice): 100.0a %
- Accumulated clinical recuperation, n (recuperated animals) (Formula 0.15%, day 5, 10 mice): 10
- Accumulated clinical recuperation (Formula 0.15%, day 7, 10 mice): 100.0%
- Accumulated clinical recuperation, n (recuperated animals) (Formula 0.15%, day 7, 10 mice): 10
- Accumulated clinical recuperation (Formula 0.2%, day 3, 10 mice): 80.0a %
- Accumulated clinical recuperation, n (recuperated animals) (Formula 0.2%, day 3, 10 mice): 8
- Accumulated clinical recuperation (Formula 0.2%, day 5, 10 mice): 100.0a %
- Accumulated clinical recuperation, n (recuperated animals) (Formula 0.2%, day 5, 10 mice): 10
- Accumulated clinical recuperation (Formula 0.2%, day 7, 10 mice): 100.0%
- Accumulated clinical recuperation, n (recuperated animals) (Formula 0.2%, day 7, 10 mice): 10
- Accumulated clinical recuperation (Formula 0.25%, day 3, 10 mice): 50.0a %
- Accumulated clinical recuperation, n (recuperated animals) (Formula 0.25%, day 3, 10 mice): 5
- Accumulated clinical recuperation (Formula 0.25%, day 5, 10 mice): 90.0a %
- Accumulated clinical recuperation, n (recuperated animals) (Formula 0.25%, day 5, 10 mice): 9
- Accumulated clinical recuperation (Formula 0.25%, day 7, 10 mice): 100.0%
- Accumulated clinical recuperation, n (recuperated animals) (Formula 0.25%, day 7, 10 mice): 10
